Results taken from ChEMBL document CHEMBL2434852, “Synthesis, cytotoxicity and DNA binding of oxoazabenzo[de]anthracenes derivatives in colon cancer Caco-2 cells” (Eur J Med Chem, 2013).
The source made the active and inactive calls. The rule behind the calls is not given here.

Legend:
DNA [1] = assay: Displacement of ethidium bromide from calf thymus DNA assessed as fluorescence quenching by fluorometric assay; assay type: nucleic-acid assay; conditions: Bos taurus
DNA [2] = assay: Binding affinity to calf thymus DNA assessed as melting temperature at 10 uM by UV-Vis spectrophotometer analysis; assay type: nucleic-acid assay; conditions: Bos taurus
Caco-2 [3] = assay: Cytotoxicity against human Caco2 cells up to 40 uM after 24 hrs by MTT assay; assay type: functional, cell-based
Escherichia coli = assay: Binding affinity to Escherichia coli supercoiled pBR322 assessed as change in morphology of plasmid to more relaxed conformation at 50 to 100 uM by agarose gel electrophoresis
[4] = molecular target: DNA topoisomerase 2-alpha (Homo sapiens) (UniProt P11388); assay: Inhibition of topoisomerase 2 (unknown origin) relaxation of supercoiled pBR322 at 50 to 100 uM by agarose gel electrophoresis
Caco-2 [5] = assay: Cytotoxicity against human Caco2 cells after 72 hrs by MTT assay; assay type: functional, cell-based; conditions: for IC50: Caco-2, 72 h
[6] = molecular target: T1, DNA topoisomerase 1 (Homo sapiens) (UniProt P11387); assay: Inhibition of topoisomerase 1 (unknown origin) relaxation of supercoiled pBR322 at 50 to 100 uM by agarose gel electrophoresis
T1 sequence (whole entry): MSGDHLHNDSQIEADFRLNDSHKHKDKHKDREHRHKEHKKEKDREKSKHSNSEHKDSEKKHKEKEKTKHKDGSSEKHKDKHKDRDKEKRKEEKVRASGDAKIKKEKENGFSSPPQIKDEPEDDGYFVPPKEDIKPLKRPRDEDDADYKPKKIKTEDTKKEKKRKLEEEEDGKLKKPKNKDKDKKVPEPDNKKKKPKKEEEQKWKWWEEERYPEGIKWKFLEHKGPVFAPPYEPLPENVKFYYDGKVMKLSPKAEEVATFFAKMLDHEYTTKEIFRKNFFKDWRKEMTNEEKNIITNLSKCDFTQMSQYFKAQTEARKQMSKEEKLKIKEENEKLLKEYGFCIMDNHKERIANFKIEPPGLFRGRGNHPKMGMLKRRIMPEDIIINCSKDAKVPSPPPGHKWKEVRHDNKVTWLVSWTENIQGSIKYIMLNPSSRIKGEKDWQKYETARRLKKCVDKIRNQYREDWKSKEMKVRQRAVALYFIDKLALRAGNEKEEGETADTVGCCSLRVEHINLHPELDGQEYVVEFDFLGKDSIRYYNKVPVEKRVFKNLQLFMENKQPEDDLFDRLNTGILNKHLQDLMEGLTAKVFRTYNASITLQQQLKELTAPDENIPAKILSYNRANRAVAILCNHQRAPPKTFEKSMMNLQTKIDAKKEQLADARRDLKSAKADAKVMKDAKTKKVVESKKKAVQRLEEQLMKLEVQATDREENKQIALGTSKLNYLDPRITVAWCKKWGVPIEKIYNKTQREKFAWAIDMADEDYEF

Sequence of DNA topoisomerase 2-alpha (Homo sapiens) (P11388 whole entry): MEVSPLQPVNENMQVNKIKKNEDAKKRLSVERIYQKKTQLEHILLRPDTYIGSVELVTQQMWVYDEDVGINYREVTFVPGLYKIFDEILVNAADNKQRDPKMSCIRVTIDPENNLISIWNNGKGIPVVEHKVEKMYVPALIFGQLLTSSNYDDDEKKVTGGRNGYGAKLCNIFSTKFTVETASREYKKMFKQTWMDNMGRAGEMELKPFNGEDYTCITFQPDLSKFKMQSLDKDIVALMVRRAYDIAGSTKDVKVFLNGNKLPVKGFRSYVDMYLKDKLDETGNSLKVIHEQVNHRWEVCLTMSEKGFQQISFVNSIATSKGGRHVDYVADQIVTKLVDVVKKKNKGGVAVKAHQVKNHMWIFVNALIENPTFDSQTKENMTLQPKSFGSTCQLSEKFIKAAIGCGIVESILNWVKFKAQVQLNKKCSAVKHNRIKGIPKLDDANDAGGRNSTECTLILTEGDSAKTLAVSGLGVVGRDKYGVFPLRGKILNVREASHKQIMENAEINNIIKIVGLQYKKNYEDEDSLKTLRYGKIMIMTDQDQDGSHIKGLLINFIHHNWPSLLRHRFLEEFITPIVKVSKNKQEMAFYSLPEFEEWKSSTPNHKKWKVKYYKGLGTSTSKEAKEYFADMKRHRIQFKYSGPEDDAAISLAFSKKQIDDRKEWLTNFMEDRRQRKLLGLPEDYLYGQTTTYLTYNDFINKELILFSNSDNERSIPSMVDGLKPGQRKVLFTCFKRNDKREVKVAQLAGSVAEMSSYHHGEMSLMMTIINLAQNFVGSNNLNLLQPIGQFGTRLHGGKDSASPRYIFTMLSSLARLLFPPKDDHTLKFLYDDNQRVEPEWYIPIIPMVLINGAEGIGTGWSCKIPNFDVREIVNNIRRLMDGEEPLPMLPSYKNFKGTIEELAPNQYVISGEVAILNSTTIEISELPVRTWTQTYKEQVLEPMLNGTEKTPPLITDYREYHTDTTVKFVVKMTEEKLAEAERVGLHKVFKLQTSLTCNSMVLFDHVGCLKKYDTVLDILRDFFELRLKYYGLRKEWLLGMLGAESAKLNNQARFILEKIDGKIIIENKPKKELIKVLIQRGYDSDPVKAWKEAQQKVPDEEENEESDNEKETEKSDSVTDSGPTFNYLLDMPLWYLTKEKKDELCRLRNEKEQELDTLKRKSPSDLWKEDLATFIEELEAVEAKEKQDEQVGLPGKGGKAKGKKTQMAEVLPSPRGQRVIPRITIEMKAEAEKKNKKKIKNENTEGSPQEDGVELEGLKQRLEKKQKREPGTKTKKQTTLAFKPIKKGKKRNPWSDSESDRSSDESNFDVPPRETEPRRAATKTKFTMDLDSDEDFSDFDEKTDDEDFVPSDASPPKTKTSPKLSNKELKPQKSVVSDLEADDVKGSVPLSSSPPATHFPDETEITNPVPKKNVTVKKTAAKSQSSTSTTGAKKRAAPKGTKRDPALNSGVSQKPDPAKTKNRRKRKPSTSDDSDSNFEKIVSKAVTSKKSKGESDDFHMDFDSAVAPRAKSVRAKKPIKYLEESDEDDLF

Row | Structure (SMILES) | C50 (DNA [1]) | Tm (DNA [2]) [°C] | Activity (Escherichia coli) | inhibition [4] | inhibition [6] | Activity (Caco-2 [3]) | IC50 (Caco-2 [5]) [µM] | Activity (Caco-2 [5])
1 | O=C1c2cccc(O)c2C2=NC(CO)Oc3cccc1c32 (centres undefined) | inactive | 64.3 | – | – | – | inactive | – | –
2 | NCCC1CCCCN1C1N=C2c3c(O)cccc3C(=O)c3cccc(c32)O1 (centres undefined) | 6 µM | 79.9 | Active | inactive | inactive | inactive | 16 | –
3 | COc1cccc2c1C(=O)c1c(O)c3c(c(O)c1C2=O)C[C@@](O)(C(=O)CO)C[C@@H]3O[C@H]1C[C@H](N)[C@H](O)[C@H](C)O1 [DOXORUBICIN] | – | 92 | – | – | – | inactive | 5 | –
4 | NCCC1CN(C2N=C3c4c(O)cccc4C(=O)c4cccc(c43)O2)CCO1 (centres undefined) | inactive | 66.2 | – | – | – | inactive | – | inactive

Second part, led by results:

Row | C50 (DNA [1]) | Tm (DNA [2]) [°C] | Activity (Escherichia coli) | inhibition [4] | inhibition [6] | Structure (SMILES) | Activity (Caco-2 [3]) | IC50 (Caco-2 [5]) [µM] | Activity (Caco-2 [5])
5 | inactive | 59.2 | – | – | – | O=C1c2cccc(O)c2C2=NC(CCCCCO)Oc3cccc1c32 (centres undefined) | inactive | – | –
6 | inactive | 57.2 | – | – | – | O=C1c2cccc(O)c2C2=NC(CCO)Oc3cccc1c32 (centres undefined) | inactive | – | –
7 | inactive | 58.4 | – | – | – | O=C1c2cccc(O)c2C2=NC(CCCO)Oc3cccc1c32 (centres undefined) | inactive | – | –
8 | inactive | 62.2 | – | – | – | O=C1c2cccc(O)c2C2=NC(CCCCO)Oc3cccc1c32 (centres undefined) | inactive | – | –
